Source: patent US20220409692A1, “Systems Chemico-Pharmacology Drugs and Methods of Use” (The Medical College of Wisconsin, priority 2019, published 2022)

What was measured:
MPO = target: T1, MPO (Homo sapiens, UniProt P05164); experiment: KYC/AA(n) peptide inhibition of MPO HOCl production (TMB assay) at varied pH; type: biochemical; conditions: regardless of pH
T1 sequence (P05164 49-745): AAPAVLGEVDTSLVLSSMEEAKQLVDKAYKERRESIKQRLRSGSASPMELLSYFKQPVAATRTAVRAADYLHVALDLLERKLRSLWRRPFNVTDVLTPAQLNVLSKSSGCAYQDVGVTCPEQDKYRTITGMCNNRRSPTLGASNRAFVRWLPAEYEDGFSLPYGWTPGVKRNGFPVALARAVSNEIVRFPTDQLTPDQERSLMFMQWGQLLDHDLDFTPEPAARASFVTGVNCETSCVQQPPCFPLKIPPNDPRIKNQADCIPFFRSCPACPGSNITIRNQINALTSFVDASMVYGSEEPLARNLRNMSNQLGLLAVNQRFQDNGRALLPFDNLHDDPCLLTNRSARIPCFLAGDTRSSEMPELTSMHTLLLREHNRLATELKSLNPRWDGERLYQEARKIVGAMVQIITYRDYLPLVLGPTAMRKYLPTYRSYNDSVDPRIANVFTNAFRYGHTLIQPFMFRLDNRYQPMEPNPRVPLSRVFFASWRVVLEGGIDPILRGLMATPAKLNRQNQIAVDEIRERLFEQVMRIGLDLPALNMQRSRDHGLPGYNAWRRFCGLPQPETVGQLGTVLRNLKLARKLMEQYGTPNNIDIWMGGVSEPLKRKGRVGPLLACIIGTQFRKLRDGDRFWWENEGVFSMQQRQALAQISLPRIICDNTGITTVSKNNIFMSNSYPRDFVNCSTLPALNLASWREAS
Source text: Small peptides of generic formula AA(n) (where AA represents different amino acids, and n can be 2-5) are both substrates and inhibitors of MPO (alternatively, inhibitors of EPO). These peptides are […] at the active site of MPO, which subsequently decreases the production of toxic oxidants that includes but not restricted to hypochlorous acid. All MPO activities (i.e., hypochlorous acid production) described herein were quantified by the 3,3′,5,5′-tetramethylbenzidine (TMB) assay. […] The free radical itself may act as an activated species, and is stable enough to react with proximal proteins, peptides, metabolites or small molecules to effect further change. The free radical is not limited to a single target, but may effect change multiple independent targets. In a non-limiting example, the free radical goes on to form a hetero- or homo dimer via an oxidized —S—S— disulfide (or di-Selenium) linkage. Finally, the more interactions between the peptide and active site of MPO that occurs the lower numerical IC50 value of the peptide inhibitor.
KYZ is […] in the presence of MPO, which subsequently decreases the production of hypochlorous acid. All MPO activities (i.e., hypochlorous acid production) were quantified by the 3,3′,5,5′-tetramethylbenzidine (TMB) assay. The tripeptide KXZ, requires amino acid #1 (AA1, K) to be a native amino acid or an artificial amino acid (aa) with a basic side-chain such as an amine functional group (e.g., Lysine (K)). Amino acid #2 (AA2, X) is a native or artificial amino acid that may contain a polar, non-polar, or aromatic amino acid.

RLMVEC = experiment: KYC thiylation of endothelial cell proteins in RLMVEC cultures; type: cell-based, rat
Source text: FIG. 29. Effects of Oxidative Stress on KYC Thiylation of RLMVEC Proteins. (A) Streptavidin affinity blot of KYC thiylated proteins from cell lysates prepared from RLMVEC cultures treated with B-KYC (baseline), B-KYC+MPO+H2O2 (MPO-dependent), and B-KYC+H2O2 (H2O2-dependent). (B) Immunoblot for Nrf2 in RLMVEC cultures treated as described in A. (C) Immunoblot for Keap1 in RLMVEC cultures treated as described in A. (D) Immunoblot for HMGB1 in RLMVEC cultures treated as described in A.(E) Immunoblot for β-Actin in RLMVEC cultures treated as described in A.(F) Bar chart showing relative levels of KYC thiylation, Nrf2, Keap1, and HMGB1 as a function of β-Actin (n=2, *=p<0.05, statistical analysis was preformed by ANOVA with appropriate post hoc tests).
FIG. 31. MPO Oxidation of KYC Increases KYC Thiylation of Extracellular HMGB1. […] This conclusion is based on the relative levels of KYC thiylated HMGB1 in panel A vs. KYC thiylated HMGB1 as a function of HMGB1 protein in conditioned media vs. RLMVEC cell lysates.
Rat lung microvascular endothelial cells (RLMVEC) from neonatal Sprague-Dawley rats (RN-6011) and rat endothelial growth medium (EGM, M1266SF) were from Cell Biologics (Chicago, Ill.). Amicon®Ultra-4 centrifugal concentrators with 3K cut-off (UFC800324) were from Merck Millipore Ltd (Carrigtwohill, Ireland). PierceTM Streptavidin (#88816), Protein G (#88848), Protein A Magnetic Beads (#88845), PierceTM ECL Western Blotting Substrate (#32106), and SuperSignalTM West Femto Maximum Sensitivity Substrate (#34095) were from Thermo Fisher Scientific (Waltham, MA). Rabbit antibodies for myeloperoxidase heavy chain (MPO, sc-33596) and TLR4 (sc-10741) were from Santa Cruz Biotechnology (Dallas, Texas). Rabbit antibody for Cl-Tyr (HP5002) was from Hycult Biotech (Plymouth Meeting, PA). The chicken antibody for HMGB1 (326052233) was from SHINO-TEST Corporation (Kanagawa, Japan). Rabbit antibody for RAGE (GTX23611) was from GeneTex (Irvine, CA). Mouse antibodies for PECAM-1/CD31 (ab24590), for 8-OH-dG (ab48508), and for rat endothelial cell antigen-1 (RECA-1, ab9774) were from Abcam (Cambridge, MA). Rabbit antibody for Cox1 (sc-7950) and Cox2 (sc-7951) were from Santa Cruz Biotechnology. Mouse (ab190377) and rabbit (ab77302b) antibodies for HMGB1, and streptavidin-HRP (ab7403) were from Abcam (Cambridge, Mass.). Rabbit antibody for acetylated-HMGB1 (OASG03545) was from Aviva System Biology (San Diego, Calif.). Rabbit antibodies for Nrf2 (sc-722) and TLR4 (sc-30002) were from Santa Cruz Biotechnology (Dallas, Tex.). Rabbit antibody against Keap1 (ABS97) and mouse antibody for β-actin (A2228) were from Millipore-Sigma (St. Louis, Mo.). Rabbit antibody for cysteine sulfonyl (ADI-OSA-820) was from Enzo Life Sciences (Farmingdale, N.Y.). Mouse antibody for glutathionylated proteins (D8) and all other chemicals were from Sigma-Aldrich (St. Louis, Mo.). All antibodies were certified either by the manufacturer or were used previously and certified by the authors, as was the case for the anti-HMGB1 antibody.
Effects of Oxidative Stress on KYC Thiylation on Endothelial Cell Proteins in RLMVEC Cultures: To determine the effects of oxidative stress on KYC thiylation, RLMVEC cultures were treated with B-KYC to follow KYC thiylation with streptavidin-affinity blotting as outlined in Methods. Three different levels of oxidative stress were used to determine the effects of oxidative stress on KYC thiylation of endothelial cell proteins: media alone (baseline); media containing MPO+H2O2 (MPO-dependent); and media containing H2O2 alone (H2O2-dependent) (FIG. 29A). KYC thiylation of RLMVEC proteins at baseline was low (FIG. 29A, first two lanes).

HMGB1 = target: T2, HMGB1 (Homo sapiens, UniProt P09429); experiment: Streptavidin-affinity blot of B-KYC thiylated recombinant HMGB1 and MPO in MPO reaction mixture; type: biochemical; conditions: split sample, DTT 100 mM
T2 sequence (P09429 1-215): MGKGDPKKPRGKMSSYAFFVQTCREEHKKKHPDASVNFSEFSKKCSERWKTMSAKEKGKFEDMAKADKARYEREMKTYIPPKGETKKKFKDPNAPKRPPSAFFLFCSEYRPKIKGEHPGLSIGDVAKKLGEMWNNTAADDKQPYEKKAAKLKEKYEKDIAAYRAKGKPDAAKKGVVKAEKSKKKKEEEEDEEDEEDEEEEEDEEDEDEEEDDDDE
Procedure: FIG. 30. MPO Oxidizes KYC to a KYC Thiyl Radical That Thiylates HMGB1. (A) ESR spectrum of KYC thiyl S°-DMPO generated by an MPO reaction mixture containing MPO (120 nM), H2O2 (50 μM) and KYC (30 μM). (B) Streptavidin-affinity blot of KYC thiylated HMGB1 and MPO in a split sample, one half treated neat and other half treated with DTT (100 mM) to reduce disulfide bonds.
This spectrum is similar to the spectrum of DMPO-S◯-YC generated when the dipeptide YC was added to an MPO reaction mixture containing DMPO [34].
Previously we reported that KYC reduced MPO-dependent oxidative damage because KYC competes with native substrates, such as chloride and nitrite, that are oxidized to “toxic” oxidants. In 2013, we argued that KYC reduced MPO-dependent oxidative damage because the resultant KYC thiyl radical would autoscavenge to prevent radical propagation. […] To determine the radical mechanisms mediating MPO oxidation of KYC and KYC thiylation of HMGB1, we performed two experiments. In the first experiment, we trapped KYC thiyl radicals generated by MPO with DMPO (FIG. 30A), which confirms our conclusions in 2013 [27]. In the second experiment, we added recombinant HMGB1 to PBS containing MPO+H2O2+B-KYC and determined KYC thiylation by streptavidin affinity blotting. […]

Substance	inhibitory properties (IC50) KVC versus KVVC (MPO)	KYC thiylation of RLMVEC proteins (RLMVEC; H2O2-dependent (media containing H2O2 alone))	KYC thiylation of RLMVEC proteins (RLMVEC; MPO-dependent (media containing MPO+H2O2))	KYC thiylation of RLMVEC proteins (RLMVEC; baseline (media alone))	fluorescent band density of B-KYC thiylated HMGB1 and MPO (HMGB1)
Ac-KVVC-amide [N-acetylated, C-amidated AA(n) peptide, KVC with an added amino acid]	improvement of inhibitory properties				
biotin-aminohexanoyl-N-[Ahx]-KYC-amide [B-KYC]		more than observed at baseline, but not as high as MPO-dependent B-KYC thiylation	markedly increased	low	decreased in the sample treated with dithiothreitol
